# Experimental data published in ChEMBL document CHEMBL5113405, “Discovery, enantioselective synthesis of myrtucommulone E analogues as tyrosyl-DNA phosphodiesterase 2 inhibitors and their biological activities” (Eur J Med Chem, 2022).
# How the values were obtained:
# [1] = molecular target: T1, Tyrosyl-DNA phosphodiesterase 2 (Homo sapiens, UniProt O95551); assay: Inhibition of N-terminal His-tagged human TDP2 expressed in Escherichia coli BL21 using 4-nitrophenyl phenylphosphonate as substrate incubated for 60 mins by EDTA based chromogenic assay
# T1 sequence (O95551 whole entry): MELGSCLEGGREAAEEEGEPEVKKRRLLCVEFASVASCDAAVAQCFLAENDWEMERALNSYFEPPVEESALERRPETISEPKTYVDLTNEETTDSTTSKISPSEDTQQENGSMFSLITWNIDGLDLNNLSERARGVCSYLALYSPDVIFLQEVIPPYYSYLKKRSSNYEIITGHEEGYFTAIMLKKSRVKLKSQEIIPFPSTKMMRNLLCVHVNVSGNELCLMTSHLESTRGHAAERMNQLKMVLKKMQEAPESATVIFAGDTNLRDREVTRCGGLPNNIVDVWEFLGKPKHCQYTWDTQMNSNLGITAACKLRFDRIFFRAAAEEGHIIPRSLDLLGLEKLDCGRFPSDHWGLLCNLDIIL
# A549 = assay: Cytotoxicity against human A549 cells assessed as cell growth inhibition for 72 hrs by MTT assay; format: functional
# DU-145 = assay: Cytotoxicity against human DU-145 cells assessed as cell growth inhibition for 72 hrs by MTT assay; format: functional
Structure (SMILES),IC50 [1] [µM],"GI50 (A549; Homo sapiens, A549, 72 h) [µM]","GI50 (DU-145; Homo sapiens, DU-145, 72 h) [µM]",GI50 (A549; 72 h) [µM],GI50 (DU-145; 72 h) [µM]
CCN(CC)CCOc1cc2c(c3c1[C@H](C(C)C)C1=C(O3)C(C)(C)C(=O)C(C)(C)C1=O)[C@@H](C(C)C)C1=C(O2)C(C)(C)C(=O)C(C)(C)C1=O,53,46,23,,
COc1c(C(=O)C(C)C)c2c(c3c1[C@@H](C(C)C)C1=C(O3)C(C)(C)C(=O)C(C)(C)C1=O)[C@@H](C(C)C)C1=C(O2)C(C)(C)C(=O)C(C)(C)C1=O (racemic),57,32,20,,
COc1cc(O)c2c(c1C(=O)C(C)C)OC1=C(C(=O)C(C)(C)C(=O)C1(C)C)[C@@H]2C(C)C,> 100,50,28,,
CCOC(CCCOc1cc2c(c3c1[C@H](C(C)C)C1=C(O3)C(C)(C)C(=O)C(C)(C)C1=O)[C@@H](C(C)C)C1=C(O2)C(C)(C)C(=O)C(C)(C)C1=O)OCC,41,62,27,,
COc1c(C(=O)C(C)C)c2c(c3c1[C@@H](C(C)C)C1=C(O3)C(C)(C)C(=O)C(C)(C)C1=O)[C@H](C(C)C)C1=C(O2)C(C)(C)C(=O)C(C)(C)C1=O (racemic),55,31,13,,
CC(C)[C@@H]1C2=C(Oc3cc(O)c4c(c31)OC1=C(C(=O)C(C)(C)C(=O)C1(C)C)[C@@H]4C(C)C)C(C)(C)C(=O)C(C)(C)C2=O,34,32,28,,
COc1cc(O)c2c(c1C(=O)C(C)C)OC1=C(C(=O)C(C)(C)C(=O)C1(C)C)[C@H]2C(C)C,> 100,30,16,,
CC(C)C(=O)c1c(O)c2c(c3c1OC1=C(C(=O)C(C)(C)C(=O)C1(C)C)[C@@H]3C(C)C)OC1=C(C(=O)C(C)(C)C(=O)C1(C)C)[C@@H]2C(C)C,48,,,28,15

# Now those with a lower IC50 [1], led by results:
IC50 [1] [µM],Structure (SMILES),"GI50 (A549; Homo sapiens, A549, 72 h) [µM]","GI50 (DU-145; Homo sapiens, DU-145, 72 h) [µM]",GI50 (A549; 72 h) [µM],GI50 (DU-145; 72 h) [µM]
33,CC(C)C(=O)c1c(O)c2c(c3c1OC1=C(C(=O)C(C)(C)C(=O)C1(C)C)[C@@H]3C(C)C)OC1=C(C(=O)C(C)(C)C(=O)C1(C)C)[C@@H]2C(C)C (racemic),37,26,,
32,CC(C)C(=O)c1c(O)c2c(c3c1OC1=C(C(=O)C(C)(C)C(=O)C1(C)C)[C@H]3C(C)C)OC1=C(C(=O)C(C)(C)C(=O)C1(C)C)[C@H]2C(C)C,65,38,,
32,CC(C)C1C2=C(Oc3c1c(O)cc1c3C(C(C)C)C3=C(O1)C(C)(C)C(=O)C(C)(C)C3=O)C(C)(C)C(=O)C(C)(C)C2=O (racemic; form 2),,,44,15
32,CC(C)[C@H]1C2=C(Oc3c1c(O)cc1c3[C@@H](C(C)C)C3=C(O1)C(C)(C)C(=O)C(C)(C)C3=O)C(C)(C)C(=O)C(C)(C)C2=O,38,16,,
28,CC(C)Oc1cc2c(c3c1[C@H](C(C)C)C1=C(O3)C(C)(C)C(=O)C(C)(C)C1=O)[C@@H](C(C)C)C1=C(O2)C(C)(C)C(=O)C(C)(C)C1=O,33,20,,
26,CC(C)[C@@H]1C2=C(Oc3c1c(OCCCc1ccccc1)cc1c3[C@@H](C(C)C)C3=C(O1)C(C)(C)C(=O)C(C)(C)C3=O)C(C)(C)C(=O)C(C)(C)C2=O,43,29,,
20,CCN(CC)CCCOc1cc2c(c3c1[C@H](C(C)C)C1=C(O3)C(C)(C)C(=O)C(C)(C)C1=O)[C@@H](C(C)C)C1=C(O2)C(C)(C)C(=O)C(C)(C)C1=O,85,25,,
20,CC(C)[C@@H]1C2=C(Oc3c1c(OCCCN1CCN(C)CC1)cc1c3[C@@H](C(C)C)C3=C(O1)C(C)(C)C(=O)C(C)(C)C3=O)C(C)(C)C(=O)C(C)(C)C2=O,63,51,,
20,CC(C)[C@@H]1C2=C(Oc3c1c(OCCCN1CCOCC1)cc1c3[C@@H](C(C)C)C3=C(O1)C(C)(C)C(=O)C(C)(C)C3=O)C(C)(C)C(=O)C(C)(C)C2=O,65.7,26,,
